Assays:
bedstraw = assay: Test B pre/postemergence bedstraw; type: in vivo, Galium aparine; conditions: Preemergence
In short: (§1)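 Response is a visual 0-to-10 score relative to untreated plants, where 0 means no effect and 10 means complete control, taken twelve to sixteen days after application. Treatments went onto soil at planting and onto foliage of 1- to 4-leaf plants, using a surfactant-containing non-phytotoxic solvent.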

blackgrass = assay: Test B pre/postemergence blackgrass; type: in vivo, Alopecurus myosuroides
In short: as §1

surinam grass = assay: Test B pre/postemergence surinam grass; type: in vivo, Brachiaria decumbens
In short: as §1

cocklebur = assay: Test B pre/postemergence cocklebur; type: in vivo, Xanthium strumarium
In short: as §1

corn = assay: Test B pre/postemergence corn; type: in vivo, Zea mays
In short: as §1

crabgrass = assay: Test B pre/postemergence crabgrass; type: in vivo, Digitaria sanguinalis
In short: as §1

giant foxtail = assay: Test B pre/postemergence giant foxtail; type: in vivo, Setaria faberii
In short: as §1

morningglory = assay: Test B pre/postemergence morningglory; type: in vivo, Ipomoea hederacea
In short: as §1

pigweed = assay: Test B pre/postemergence pigweed; type: in vivo, Amaranthus retroflexus
In short: as §1

rape = assay: Test B pre/postemergence rape; type: in vivo, Brassica napus
In short: as §1

soybean = assay: Test B pre/postemergence soybean; type: in vivo, Glycine max
In short: as §1

sugar beet = assay: Test B pre/postemergence sugar beet; type: in vivo, Beta vulgaris
In short: as §1

velvetleaf = assay: Test B pre/postemergence velvetleaf; type: in vivo, Abutilon theophrasti
In short: as §1

wheat = assay: Test B pre/postemergence wheat; type: in vivo, Triticum aestivum
In short: as §1

wild oat = assay: Test B pre/postemergence wild oat; type: in vivo, Avena fatua
In short: as §1

purple nutsedge = assay: Test B pre/postemergence purple nutsedge; type: in vivo, Cyperus rotundus
In short: as §1

[1] = Postemergence, Rate 62 g/ha, scale of 0 to 10, 0 is no effect, 10 is complete control
[2] = Postemergence, Rate 125 g/ha, scale 0 to 10, 0 is no effect, 10 is complete control
[3] = Postemergence, Rate 500 g/ha, scale 0 to 10, 0 is no effect, 10 is complete control
[4] = Preemergence, Rate 62 g/ha, scale 0 to 10 (0 no effect, 10 complete control)
[5] = Preemergence, Rate 125 g/ha, scale 0 to 10, 0 is no effect, 10 is complete control
[6] = Rate 250 g/ha, Postemergence, scale of 0 to 10 where 0 is no effect and 10 is complete control
[7] = Preemergence, Rate 500 g/ha, scale of 0 to 10 where 0 is no effect and 10 is complete control

CCOCn1c(=O)on(C(=O)N(c2ccc(Cl)cc2)C(C)C)c1=O [Compound 534]
Bedstraw plant response rating (bedstraw; Rate 62 g/ha, scale 0 to 10 (0 no effect, 10 complete control)): 0
Bedstraw plant response rating (bedstraw; Rate 125 g/ha, scale 0 to 10, 0 is no effect, 10 is complete control): 0
Bedstraw plant response rating (0 to 10 scale) (bedstraw; Rate 250 g/ha): 0
Blackgrass plant response rating (blackgrass; [1]): 0
Blackgrass plant response rating (blackgrass; [2]): 2
Plant response rating, Blackgrass (blackgrass; [3]): 7
Blackgrass plant response rating (blackgrass; [4]): 8
Blackgrass plant response rating (blackgrass; [5]): 9
Blackgrass plant response rating (0 to 10 scale) (blackgrass; Preemergence, Rate 250 g/ha): 9
Plant response rating, Blackgrass (blackgrass; [6]): 7
B. signalgrass plant response rating (surinam grass; [1]): 0
B. signalgrass plant response rating (surinam grass; [2]): 0
Plant response rating, B. signalgrass (surinam grass; [3]): 6
B. signalgrass plant response rating (surinam grass; [4]): 9
B. signalgrass plant response rating (surinam grass; [5]): 9
B. signalgrass plant response rating (0 to 10 scale, 0 is no effect, 10 is complete control) (surinam grass; Preemergence, Rate 250 g/ha): 9
Plant response rating, B. signalgrass (surinam grass; [6]): 0
Cocklebur plant response rating (cocklebur; [1]): 0
Cocklebur plant response rating (cocklebur; [2]): 0
Plant response rating, Cocklebur (cocklebur; [3]): 0
Cocklebur plant response rating (cocklebur; [4]): 0
Cocklebur plant response rating (cocklebur; [5]): 0
Cocklebur plant response rating (0 to 10 scale) (cocklebur; Preemergence, Rate 250 g/ha): 0
Cocklebur plant response rating (cocklebur; [7]): 0
Plant response rating, Cocklebur (cocklebur; [6]): 0
Corn plant response rating (corn; [1]): 0
Corn plant response rating (corn; [2]): 0
Plant response rating, Corn (corn; [3]): 0
Corn plant response rating (corn; [4]): 0
Corn plant response rating (corn; [5]): 0
Corn plant response rating (0 to 10 scale) (corn; Preemergence, Rate 250 g/ha): 3
Corn plant response rating (corn; [7]): 3
Plant response rating, Corn (corn; [6]): 0
Crabgrass plant response rating (crabgrass; [2]): 5
Plant response rating, Crabgrass (crabgrass; [3]): 8
Crabgrass plant response rating (crabgrass; [4]): 9
Crabgrass plant response rating (crabgrass; [5]): 10
Crabgrass plant response rating (0 to 10 scale) (crabgrass; Preemergence, Rate 250 g/ha): 10
Crabgrass plant response rating (crabgrass; [7]): 10
Plant response rating, Crabgrass (crabgrass; [6]): 4
Giant foxtail plant response rating (giant foxtail; [2]): 3
Plant response rating, Giant foxtail (giant foxtail; [3]): 8
Giant foxtail plant response rating (giant foxtail; [4]): 9
Giant foxtail plant response rating (giant foxtail; [5]): 9
Giant foxtail plant response rating (0 to 10 scale) (giant foxtail; Preemergence, Rate 250 g/ha): 10
Giant foxtail plant response rating (giant foxtail; [7]): 10
Plant response rating, Giant foxtail (giant foxtail; [6]): 4
Morningglory plant response rating (morningglory; [1]): 2
Morningglory plant response rating (morningglory; [2]): 2
Plant response rating, Morningglory (morningglory; [3]): 3
Morningglory plant response rating (morningglory; [4]): 0
Morningglory plant response rating (morningglory; [5]): 0
Morningglory plant response rating (0 to 10 scale) (morningglory; Preemergence, Rate 250 g/ha): 2
Morningglory plant response rating (morningglory; [7]): 0
Plant response rating, Morningglory (morningglory; [6]): 2
Redroot pigweed plant response rating (pigweed; [1]): 0
Redroot pigweed plant response rating (pigweed; [2]): 3
Plant response rating, Redroot pigweed (pigweed; [3]): 7
Redroot pigweed plant response rating (pigweed; [4]): 0
Redroot pigweed plant response rating (pigweed; [5]): 0
Redroot pigweed plant response rating (0 to 10 scale) (pigweed; Preemergence, Rate 250 g/ha): 0
Plant response rating, Redroot pigweed (pigweed; [6]): 3
Rape plant response rating (rape; [1]): 0
Rape plant response rating (rape; [2]): 0
Plant response rating, Rape (rape; [3]): 7
Rape plant response rating (rape; [4]): 2
Rape plant response rating (rape; [5]): 6
Rape plant response rating (0 to 10 scale) (rape; Preemergence, Rate 250 g/ha): 6
Plant response rating, Rape (rape; [6]): 0
Soybean plant response rating (soybean; [2]): 4
Plant response rating, Soybean (soybean; [3]): 7
Soybean plant response rating (soybean; [4]): 0
Soybean plant response rating (soybean; [5]): 0
Soybean plant response rating (0 to 10 scale) (soybean; Preemergence, Rate 250 g/ha): 0
Plant response rating, Soybean (soybean; [6]): 6
Sugarbeets plant response rating (sugar beet; [1]): 0
Sugarbeets plant response rating (sugar beet; [2]): 0
Plant response rating, Sugarbeets (sugar beet; [3]): 2
Sugarbeets plant response rating (sugar beet; [4]): 3
Sugarbeets plant response rating (sugar beet; [5]): 4
Sugarbeets plant response rating (0 to 10 scale) (sugar beet; Preemergence, Rate 250 g/ha): 6
Plant response rating, Sugarbeets (sugar beet; [6]): 3
Velvetleaf plant response rating (velvetleaf; [1]): 0
Velvetleaf plant response rating (velvetleaf; [2]): 2
Plant response rating, Velvetleaf (velvetleaf; [3]): 2
Velvetleaf plant response rating (velvetleaf; [4]): 0
Velvetleaf plant response rating (velvetleaf; [5]): 2
Velvetleaf plant response rating (0 to 10 scale) (velvetleaf; Preemergence, Rate 250 g/ha): 2
Velvetleaf plant response rating (velvetleaf; [7]): 3
Plant response rating, Velvetleaf (velvetleaf; [6]): 2
Wheat plant response rating (wheat; [1]): 0
Wheat plant response rating (wheat; [2]): 0
Plant response rating, Wheat (wheat; [3]): 5
Wheat plant response rating (wheat; [4]): 0
Wheat plant response rating (wheat; [5]): 0
Wheat plant response rating (0 to 10 scale) (wheat; Preemergence, Rate 250 g/ha): 3
Plant response rating, Wheat (wheat; [6]): 3
Wild oats plant response rating (wild oat; [1]): 0
Wild oats plant response rating (wild oat; [2]): 0
Plant response rating, Wild oats (wild oat; [3]): 3
Wild oats plant response rating (wild oat; [4]): 3
Wild oats plant response rating (wild oat; [5]): 8
Wild oats plant response rating (0 to 10 scale) (wild oat; Preemergence, Rate 250 g/ha): 9
Plant response rating, Wild oats (wild oat; [6]): 0
Nutsedge plant response rating (purple nutsedge; [1]): 0
Nutsedge plant response rating (purple nutsedge; [2]): 2
Plant response rating, Nutsedge (purple nutsedge; [3]): 2
Nutsedge plant response rating (purple nutsedge; [4]): 0
Nutsedge plant response rating (purple nutsedge; [5]): 0
Plant response rating, Nutsedge (purple nutsedge; [6]): 2

— patent publication US6737383B1, “Herbicidal oxadiazolidines” (priority 1999, dated 2004)
